Reference: the supplement of paper PMC11628255, “Interference of metal ions on the bioluminescent signal of firefly, Renilla, and NanoLuc luciferases in high-throughput screening assays” (Frontiers in Chemistry, 2024)
± gives the standard deviation of the averaged measurements.

Tests used:
Assay in all cases: normalised percent inhibition of luminescence (vs positive and negative controls); higher = stronger inhibition
[1] = tested on: NanoLuc luciferase (NLuc)
Procedure: (§1)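 Concentration-response (>=11 concentrations) of metal salts on purified FLuc, NLuc or RLuc luminescence in screening (SC) or 100 mM HEPES (H) buffer; salt pre-incubated with enzyme 10 min at RT, read 10 min after substrate. Normalised percent inhibition vs plate positive (PTC-124, isradipine, BTS) and DMSO negative controls; triplicate wells.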

[2] = tested on: Renilla luciferase (RLuc)
Procedure: as §1

[3] = tested on: firefly luciferase (FLuc)
Procedure: as §1

[4] = metal salt concentration 0.002 mM, screening conditions buffer
[5] = metal salt concentration 0.005 mM, screening conditions buffer
[6] = metal salt concentration 0.01 mM, screening conditions buffer
[7] = metal salt concentration 0.02 mM, screening conditions buffer
[8] = metal salt concentration 0.05 mM, screening conditions buffer
[9] = metal salt concentration 0.1 mM, screening conditions buffer
[10] = metal salt concentration 0.2 mM, screening conditions buffer
[11] = metal salt concentration 0.5 mM, screening conditions buffer
[12] = metal salt concentration 1 mM, screening conditions buffer
[13] = metal salt concentration 2.5 mM, screening conditions buffer
[14] = metal salt concentration 5 mM, screening conditions buffer
[15] = metal salt concentration 0.0001 mM, 100 mM HEPES buffer
[16] = metal salt concentration 0.00025 mM, 100 mM HEPES buffer
[17] = metal salt concentration 0.0005 mM, 100 mM HEPES buffer
[18] = metal salt concentration 0.001 mM, 100 mM HEPES buffer
[19] = metal salt concentration 0.025 mM, 100 mM HEPES buffer
[20] = metal salt concentration 0.05 mM, 100 mM HEPES buffer
[21] = metal salt concentration 0.1 mM, 100 mM HEPES buffer
[22] = metal salt concentration 0.5 mM, 100 mM HEPES buffer
[23] = metal salt concentration 1 mM, 100 mM HEPES buffer
[24] = metal salt concentration 2.5 mM, 100 mM HEPES buffer
[25] = metal salt concentration 5 mM, 100 mM HEPES buffer

O=[N+]([O-])[O-].O=[N+]([O-])[O-].O=[N+]([O-])[O-].[Ga+3] [gallium(III) nitrate]
normalised percent inhibition [1, 4]: 3.99 ± 7.6% | normalised percent inhibition [1, 5]: 6.69 ± 0.19% | normalised percent inhibition [1, 6]: 2.43 ± 7.3% | normalised percent inhibition [1, 7]: 4.43 ± 6.3% | normalised percent inhibition [1, 8]: 6.6 ± 5.5% | normalised percent inhibition [1, 9]: 7.81 ± 4.6% | normalised percent inhibition [1, 10]: 8.25 ± 4.3% | normalised percent inhibition [1, 11]: 12.8 ± 6.8% | normalised percent inhibition [1, 12]: 35 ± 6.8% | normalised percent inhibition [1, 13]: 89.2 ± 38% | normalised percent inhibition [1, 14]: 120 ± 20% | normalised percent inhibition [2, 4]: -6.33 ± 7.7% | normalised percent inhibition [2, 5]: -7.44 ± 12% | normalised percent inhibition [2, 6]: -4.58 ± 11% | normalised percent inhibition [2, 7]: -6.17 ± 5.8% | normalised percent inhibition [2, 8]: -6.25 ± 6.5% | normalised percent inhibition [2, 9]: -7.99 ± 8.9% | normalised percent inhibition [2, 10]: -8.55 ± 15% | normalised percent inhibition [2, 11]: -5.45 ± 11% | normalised percent inhibition [2, 12]: -8.55 ± 3.7% | normalised percent inhibition [2, 13]: -0.965 ± 7.9% | normalised percent inhibition [2, 14]: 71.8 ± 34% | normalised percent inhibition [3, 15]: -32.2 ± 3.6% | normalised percent inhibition ([3]; metal salt concentration 0.0001 mM, screening conditions buffer): 19.5 ± 2.5% | normalised percent inhibition [3, 16]: -34.5 ± 6.7% | normalised percent inhibition ([3]; metal salt concentration 0.00025 mM, screening conditions buffer): -10.2 ± 3% | normalised percent inhibition [3, 17]: -31.8 ± 17% | normalised percent inhibition ([3]; metal salt concentration 0.0005 mM, screening conditions buffer): 10 ± 8.8% | normalised percent inhibition [3, 18]: -39.5 ± 9% | normalised percent inhibition ([3]; metal salt concentration 0.001 mM, screening conditions buffer): -11.4 ± 3.9% | normalised percent inhibition ([3]; metal salt concentration 0.01 mM, 100 mM HEPES buffer): 27.3 ± 10% | normalised percent inhibition [3, 19]: 90.2 ± 6.4% | normalised percent inhibition ([3]; metal salt concentration 0.025 mM, screening conditions buffer): -13.5 ± 3.7% | normalised percent inhibition [3, 20]: 98.3 ± 1.3% | normalised percent inhibition [3, 21]: 99.28 ± 0.83% | normalised percent inhibition [3, 22]: 99.8 ± 1.2% | normalised percent inhibition [3, 23]: 98.9 ± 1.4% | normalised percent inhibition [3, 24]: 99.5 ± 1.1% | normalised percent inhibition [3, 25]: 100.3 ± 0.68%

[Cl][Fe]([Cl])[Cl] [iron(III) chloride]
normalised percent inhibition [1, 15]: -1.25 ± 4.4% | normalised percent inhibition [1, 16]: -4.27 ± 8.5% | normalised percent inhibition [1, 17]: -1.65 ± 4.2% | normalised percent inhibition [1, 18]: -0.138 ± 3.3% | normalised percent inhibition [1, 4]: 0.19 ± 3.9% | normalised percent inhibition [1, 5]: 4.14 ± 6.8% | normalised percent inhibition [1, 6]: 8.93 ± 3% | normalised percent inhibition [1, 7]: 14.5 ± 4.1% | normalised percent inhibition [1, 19]: 5.06 ± 5.1% | normalised percent inhibition [1, 20]: 15 ± 1.8% | normalised percent inhibition [1, 8]: -3.71 ± 1.9% | normalised percent inhibition [1, 21]: 35.6 ± 2.7% | normalised percent inhibition [1, 9]: 28.5 ± 5.2% | normalised percent inhibition [1, 10]: 31.9 ± 1.6% | normalised percent inhibition [1, 22]: 99.75 ± 0.79% | normalised percent inhibition [1, 11]: 52.9 ± 0.99% | normalised percent inhibition [1, 23]: 101.4 ± 0.23% | normalised percent inhibition [1, 12]: 89.6 ± 7.1% | normalised percent inhibition [1, 24]: 101.8 ± 0.23% | normalised percent inhibition [1, 13]: 137.4 ± 0.29% | normalised percent inhibition [1, 25]: 102.12 ± 0.051% | normalised percent inhibition [1, 14]: 137.49 ± 0.063% | normalised percent inhibition [2, 15]: -21.7 ± 4.9% | normalised percent inhibition [2, 16]: -24.6 ± 22% | normalised percent inhibition [2, 17]: -24.2 ± 25% | normalised percent inhibition [2, 18]: -15.5 ± 20% | normalised percent inhibition [2, 4]: 0.819 ± 2.5% | normalised percent inhibition [2, 5]: -4.9 ± 5% | normalised percent inhibition [2, 6]: -11.6 ± 8.6% | normalised percent inhibition [2, 7]: 0.263 ± 14% | normalised percent inhibition [2, 19]: -1.73 ± 19% | normalised percent inhibition [2, 20]: 36.7 ± 12% | normalised percent inhibition [2, 8]: -5.21 ± 2% | normalised percent inhibition [2, 21]: 61.1 ± 4.2% | normalised percent inhibition [2, 9]: 23.9 ± 8.6% | normalised percent inhibition [2, 10]: 32.6 ± 8.1% | normalised percent inhibition [2, 22]: 103 ± 1.9% | normalised percent inhibition [2, 11]: 48.5 ± 1.6% | normalised percent inhibition [2, 23]: 103 ± 2.3% | normalised percent inhibition [2, 12]: 75.5 ± 7.8% | normalised percent inhibition [2, 24]: 105.7 ± 0.74% | normalised percent inhibition [2, 13]: 94.4 ± 4.9% | normalised percent inhibition [2, 25]: 106.2 ± 0.43% | normalised percent inhibition [2, 14]: 105 ± 1.1% | normalised percent inhibition [3, 15]: -26 ± 15% | normalised percent inhibition [3, 16]: -29.2 ± 20% | normalised percent inhibition [3, 17]: -34.9 ± 20% | normalised percent inhibition [3, 18]: -41.7 ± 17% | normalised percent inhibition [3, 4]: 14.7 ± 1.8% | normalised percent inhibition [3, 5]: 55.7 ± 4.7% | normalised percent inhibition [3, 6]: 85.4 ± 3.2% | normalised percent inhibition [3, 7]: 95.8 ± 6.3% | normalised percent inhibition [3, 19]: 99.41 ± 0.94% | normalised percent inhibition [3, 20]: 99.62 ± 0.49% | normalised percent inhibition [3, 8]: 82.4 ± 4.2% | normalised percent inhibition [3, 21]: 100.6 ± 0.19% | normalised percent inhibition [3, 9]: 71.9 ± 8.1% | normalised percent inhibition [3, 10]: 95.4 ± 4.9% | normalised percent inhibition [3, 22]: 100.3 ± 0.49% | normalised percent inhibition [3, 11]: 100.2 ± 0.3% | normalised percent inhibition [3, 23]: 99.6 ± 1.3% | normalised percent inhibition [3, 12]: 100.6 ± 0.43% | normalised percent inhibition [3, 24]: 100.2 ± 0.32% | normalised percent inhibition [3, 13]: 100.6 ± 0.38% | normalised percent inhibition [3, 25]: 99.84 ± 0.32% | normalised percent inhibition [3, 14]: 100.5 ± 0.3%
